Source: US10322161B2, “EPHA4 cyclic peptide antagonists for neuroprotection and neural repair” (Sanford Burnham Prebys Medical Discovery Institute, priority 2014, dated 2019)
Entries after “also recorded” stand apart in the source; their conditions may differ. Ends that are not written are not given here.

Tests used:
[1] = Stability of antagonistic activity in plasma
Procedure: (§1) Aliquots were collected at different time points and used in ELISA measuring inhibition of EphA4 AP-ephrin-A5 Fc binding. For ELISA, ephrin-A5 Fc was immobilized at 1 μg/mL for 1 hour at room temperature in protein A-coated 96-well plates as described above. […] The amount of bound AP fusion protein was quantified by measuring the absorbance at 280 nm. The optical density obtained from wells coated with Fc and incubated with EphA4 AP and plasma or serum was subtracted as the background.

[2] = target: T1, EphA4 (Mus musculus, UniProt Q03137); test: ELISA, inhibition of ephrin-A5 AP binding to immobilized EphA4 Fc; settings: C-terminally amidated peptides
T1 construct: mouse EphA4 ectodomain fused to Fc; purchased R&D Systems

[3] = test system: other Eph receptors (EphA2, EphA3, EphA5, EphA6, EphA7, EphA8, EphB1, EphB2, EphB3, EphB4, EphB6); test: Eph receptor selectivity ELISA (ephrin-A5 AP / ephrin-B2 AP binding to Eph receptor Fc); settings: concentration about 100-fold higher than the IC50 value for EphA4
[4] = test system: HT22 mouse hippocampal neurons; test: MTT cytotoxicity assay; format: cell-based; settings: HT22 cells, 24 hours, 30 μM
Procedure: HT22 mouse hippocampal neurons were grown in DMEM supplemented with 10% FBS, 1 mM sodium pyruvate and antibiotics. […] The cells were then incubated for 2 hours in 5 mg/mL MTT (Sigma-Aldrich) in PBS at 37° C. in a CO2 incubator. The resulting formazan crystals were solubilized by addition of 100% DMSO and OD570 was measured.

[5] = in vitro; settings: rat, Half-life (t1/2) CSF
Procedure: as §1

[6] = in vitro; settings: mouse, plasma, Half-life (t1/2) Plasma
Procedure: as §1

[7] = Stability of antagonistic activity in cerebrospinal fluid (CSF); settings: rat, depending on the conditions, units inside the value
Procedure: as §1

[8] = mouse, plasma, Half-life (t1/2) Plasma
Procedure: as §1

[9] = target: EphA4 (Homo sapiens, UniProt P54764); settings: background statement; cited from earlier work
EphA4 (Homo sapiens, UniProt P54764), sequence (P54764 20-986, species assumed): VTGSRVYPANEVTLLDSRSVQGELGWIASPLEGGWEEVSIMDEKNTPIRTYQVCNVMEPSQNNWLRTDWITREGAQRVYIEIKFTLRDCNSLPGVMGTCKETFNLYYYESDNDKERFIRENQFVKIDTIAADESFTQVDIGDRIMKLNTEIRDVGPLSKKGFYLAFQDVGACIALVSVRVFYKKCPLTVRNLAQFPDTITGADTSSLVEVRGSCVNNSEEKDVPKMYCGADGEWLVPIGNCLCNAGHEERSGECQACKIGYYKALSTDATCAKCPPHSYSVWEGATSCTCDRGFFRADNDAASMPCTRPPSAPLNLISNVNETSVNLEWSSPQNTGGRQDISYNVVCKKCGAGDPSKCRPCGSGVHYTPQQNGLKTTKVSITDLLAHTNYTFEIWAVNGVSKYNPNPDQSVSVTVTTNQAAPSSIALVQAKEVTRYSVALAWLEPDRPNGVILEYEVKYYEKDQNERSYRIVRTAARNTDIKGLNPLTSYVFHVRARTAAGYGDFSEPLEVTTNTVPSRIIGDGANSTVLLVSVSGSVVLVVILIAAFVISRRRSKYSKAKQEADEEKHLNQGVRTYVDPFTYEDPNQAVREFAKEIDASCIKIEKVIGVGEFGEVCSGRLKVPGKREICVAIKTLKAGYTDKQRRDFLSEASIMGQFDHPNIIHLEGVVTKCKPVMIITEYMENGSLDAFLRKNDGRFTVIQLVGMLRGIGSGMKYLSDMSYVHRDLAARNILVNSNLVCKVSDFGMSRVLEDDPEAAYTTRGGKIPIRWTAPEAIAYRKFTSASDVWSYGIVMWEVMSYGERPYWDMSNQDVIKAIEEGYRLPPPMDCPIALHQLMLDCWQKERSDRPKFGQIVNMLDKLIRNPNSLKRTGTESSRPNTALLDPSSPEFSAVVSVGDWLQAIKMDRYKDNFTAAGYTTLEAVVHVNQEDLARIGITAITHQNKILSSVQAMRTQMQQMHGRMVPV

T1 sequence (Q03137 20-547 limits assumed): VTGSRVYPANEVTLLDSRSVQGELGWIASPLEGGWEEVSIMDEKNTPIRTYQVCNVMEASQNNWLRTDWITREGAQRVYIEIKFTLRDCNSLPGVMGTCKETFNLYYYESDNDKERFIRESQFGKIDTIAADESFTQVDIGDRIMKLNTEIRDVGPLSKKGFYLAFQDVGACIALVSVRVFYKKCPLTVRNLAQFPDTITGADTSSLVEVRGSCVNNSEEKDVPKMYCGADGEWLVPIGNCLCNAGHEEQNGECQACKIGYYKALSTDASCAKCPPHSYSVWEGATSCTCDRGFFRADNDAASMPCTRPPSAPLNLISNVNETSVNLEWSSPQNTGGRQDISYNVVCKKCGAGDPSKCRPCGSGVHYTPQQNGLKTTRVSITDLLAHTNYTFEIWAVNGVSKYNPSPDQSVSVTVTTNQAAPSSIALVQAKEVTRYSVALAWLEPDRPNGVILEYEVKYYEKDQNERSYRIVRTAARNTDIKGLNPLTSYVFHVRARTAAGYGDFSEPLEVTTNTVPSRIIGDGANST

CC(C)[C@@H]1NC(=O)[C@@H](NC(=O)[C@H](Cc2ccc(O)cc2)NC(=O)[C@@H]2CCCN2C(=O)[C@H](C)N)CSSC[C@@H](C(=O)O)NC(=O)[C@H](CO)NC(=O)[C@H](Cc2c[nH]c3ccccc23)NC(=O)[C@H](CO)NC(=O)CNC(=O)[C@H](CCCNC(=N)N)NC(=O)[C@H](Cc2ccc(O)cc2)NC1=O [APY, reference compound]
half-life at 200 μM ([1]; mouse, plasma, Half-life (t1/2) Plasma, mouse plasma, 37° C., loss of antagonistic activity): 0.267 h

CC(C)[C@@H]1NC(=O)[C@@H](NC(=O)[C@H](Cc2ccc(O)cc2)NC(=O)[C@@H]2CCCN2C(=O)[C@H](C)N)CSSC[C@@H](C(N)=O)NC(=O)[C@H](CO)NC(=O)[C@H](Cc2c[nH]c3ccccc23)NC(=O)[C@H](CO)NC(=O)[C@H](C)NC(=O)[C@H](CCCNC(=N)N)NC(=O)[C@H](Cc2ccc(O)cc2)NC1=O [APY-Ala8.am]
loss in potency on replacement of Gly8 ([2]; relative to APY.am): about 30 fold

CC(C)[C@@H]1NC(=O)[C@@H](NC(=O)[C@H](Cc2ccc(O)cc2)NC(=O)[C@@H]2CCCN2C(=O)[C@H](C)N)CSSC[C@@H](C(N)=O)NC(=O)[C@H](CO)NC(=O)[C@H](Cc2c[nH]c3ccccc23)NC(=O)[C@H](CO)NC(=O)[C@@H](C)NC(=O)[C@H](CCCNC(=N)N)NC(=O)[C@H](Cc2ccc(O)cc2)NC1=O [APY-DAla8.am]
effect of Gly8 replacement on potency [2]: did not substantially affect potency

CC(C)[C@@H]1NC(=O)[C@@H](NC(=O)[C@H](Cc2ccc(O)cc2)NC(=O)[C@@H]2CCCN2C(=O)[C@H](C)N)CSSC[C@@H](C(N)=O)NC(=O)[C@H](CO)NC(=O)[C@H](Cc2c[nH]c3ccccc23)NC(=O)[C@H](CO)NC(=O)CCNC(=O)[C@H](CCCNC(=N)N)NC(=O)[C@H](Cc2ccc(O)cc2)NC1=O [APY-βAla8.am, APYCVYRβASWSC-am]
inhibition of other Eph receptors [3]: does not inhibit other Eph receptors | increase in stability ([1]; relative to KYL and APY): 2-8 fold | cytotoxicity (MTT) [4]: did not reveal significant cytotoxicity; also recorded: does not have detectable cytotoxic effects | half-life at 200 μM [5]: 0.5 to 3 h | half-life at 200 μM [6]: ~2 h | half-life at 200 μM [7]: 0.5 to 3 h

CC(C)[C@@H]1NC(=O)[C@@H](NC(=O)[C@H](Cc2ccc(O)cc2)NC(=O)[C@@H]2CCCN2C(=O)[C@@H](C)N)CSSC[C@@H](C(N)=O)NC(=O)[C@H](CO)NC(=O)[C@H](Cc2c[nH]c3ccccc23)NC(=O)[C@H](CO)NC(=O)CCNC(=O)[C@H](CCCNC(=N)N)NC(=O)[C@H](Cc2ccc(O)cc2)NC1=O [DAla1-PY-βAla8.am, D-APYCVYRβASWSC-am]
half-life at 200 μM [5]: ~72 h | half-life at 200 μM [6]: ~72 h

KYLPYWPVLSSL [KYL]
half-life [8]: 0.183 h | Kd [9]: 0.8 to 1 µM
